Assay results as given in paper PMC8704707 (Pharmaceuticals, 2021).
Converted amounts (≈) assume the structure as drawn. “And” between values parts separate entries of the source, which are not always exact repeats. Equal entries are not always repeated. Structures can show the parent of a compound that is named as a salt. Where two headings read alike, the source gives them in different places.

Tests used:
[1] = target: AChE from electric eel (EeAChE) (Electrophorus electricus, UniProt O42275); assay: biochemical; type: biochemical; settings: for IC50: mean ± SD, n = three independent experiments, ATCh 40 µM, read-out: IC50 AChE
Sequence of AChE from electric eel (EeAChE) (O42275 24-633): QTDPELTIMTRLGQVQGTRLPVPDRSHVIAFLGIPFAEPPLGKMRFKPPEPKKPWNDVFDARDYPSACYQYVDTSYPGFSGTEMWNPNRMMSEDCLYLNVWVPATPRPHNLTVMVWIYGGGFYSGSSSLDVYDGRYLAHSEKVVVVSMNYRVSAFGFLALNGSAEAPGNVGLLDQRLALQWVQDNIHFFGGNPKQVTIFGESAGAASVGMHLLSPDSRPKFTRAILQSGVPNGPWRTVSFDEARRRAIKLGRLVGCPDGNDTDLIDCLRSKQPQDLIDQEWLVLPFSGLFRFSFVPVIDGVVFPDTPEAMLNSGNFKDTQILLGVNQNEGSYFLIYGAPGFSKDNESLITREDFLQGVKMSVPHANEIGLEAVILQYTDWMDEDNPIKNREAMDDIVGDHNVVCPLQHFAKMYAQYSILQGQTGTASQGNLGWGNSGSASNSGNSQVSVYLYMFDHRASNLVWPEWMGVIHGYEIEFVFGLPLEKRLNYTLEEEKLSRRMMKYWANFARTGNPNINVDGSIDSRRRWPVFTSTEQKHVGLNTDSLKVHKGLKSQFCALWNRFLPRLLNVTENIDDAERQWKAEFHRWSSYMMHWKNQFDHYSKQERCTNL

[2] = target: BuChE from equine serum (EqBuChE) (Equus caballus, UniProt P81908); assay: biochemical; settings: mean ± SD, n = three independent experiments; BTCh 40 µM; read-out: IC50 BuChE
Sequence of BuChE from equine serum (EqBuChE) (P81908 whole entry): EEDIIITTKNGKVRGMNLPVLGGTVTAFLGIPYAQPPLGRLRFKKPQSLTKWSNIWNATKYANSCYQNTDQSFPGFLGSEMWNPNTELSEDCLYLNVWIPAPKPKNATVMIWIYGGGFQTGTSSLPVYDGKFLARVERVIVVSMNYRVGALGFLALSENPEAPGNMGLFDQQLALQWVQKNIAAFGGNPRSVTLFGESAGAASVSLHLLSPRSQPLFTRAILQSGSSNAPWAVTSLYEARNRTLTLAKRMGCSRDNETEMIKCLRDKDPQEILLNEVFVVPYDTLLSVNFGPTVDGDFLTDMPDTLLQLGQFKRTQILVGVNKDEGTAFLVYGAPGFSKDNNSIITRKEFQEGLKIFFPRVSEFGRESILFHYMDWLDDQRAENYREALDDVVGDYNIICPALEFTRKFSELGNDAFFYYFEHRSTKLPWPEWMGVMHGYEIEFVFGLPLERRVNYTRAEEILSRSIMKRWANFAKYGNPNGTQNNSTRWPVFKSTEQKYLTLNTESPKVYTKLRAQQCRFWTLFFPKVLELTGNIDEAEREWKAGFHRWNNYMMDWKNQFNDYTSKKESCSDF

[3] = test system: Staphylococcus aureus ATCC 29213; assay: Antibacterial microdilution broth method (EUCAST); type: cell-based
[4] = test system: methicillin-resistant Staphylococcus aureus ATCC 43300; assay: Antibacterial microdilution broth method (EUCAST); type: cell-based; settings: ATCC 43300 / MRSA
[5] = test system: Staphylococcus epidermidis ATCC 12228; assay: Antibacterial microdilution broth method (EUCAST); type: cell-based
[6] = test system: Enterococcus faecalis ATCC 29212; assay: Antibacterial microdilution broth method (EUCAST); type: cell-based
[7] = test system: Escherichia coli ATCC 25922; assay: Antibacterial microdilution broth method (EUCAST); type: cell-based
[8] = test system: Acinetobacter baumannii ATCC 19606; assay: Antibacterial microdilution broth method (EUCAST); type: cell-based
[9] = test system: Pseudomonas aeruginosa ATCC 27853; assay: Antibacterial microdilution broth method (EUCAST); type: cell-based
[10] = test system: Klebsiella pneumoniae ATCC 10031; settings: for MIC KP 24 h: 24 h incubation; for MIC KP 48 h: 48 h incubation
[11] = test system: Candida albicans ATCC 24443; assay: microbe, parasite or virus in culture; type: cell-based
Candida krusei ATCC 6258 = assay: microbe, parasite or virus in culture; type: cell-based; settings: Pichia kudriavzevii
[12] = test system: Candida parapsilosis ATCC 22019; assay: microbe, parasite or virus in culture; type: cell-based; settings: Lodderomyces parapsilosis
[13] = test system: Candida tropicalis ATCC 750; assay: microbe, parasite or virus in culture; type: cell-based
[14] = test system: Trichophyton interdigitale ATCC 9533; assay: microbe, parasite or virus in culture; type: cell-based
[15] = ATCC29213, 24 h, read-out: MIC SA 24 h
[16] = ATCC29213, 48 h, read-out: MIC SA 48 h
[17] = ATCC12228, 24 h, read-out: MIC SE 24 h
[18] = ATCC12228, 48 h, read-out: MIC SE 48 h
[19] = ATCC29212, 24 h, read-out: MIC EF 24 h
[20] = ATCC29212, 48 h, read-out: MIC EF 48 h
[21] = ATCC25922, 24 h, read-out: MIC EC 24 h
[22] = ATCC25922, 48 h, read-out: MIC EC 48 h
[23] = ATCC19606, 24 h, read-out: MIC ACI 24 h
[24] = ATCC19606, 48 h, read-out: MIC ACI 48 h
[25] = ATCC27853, 24 h, read-out: MIC PA 24 h
[26] = ATCC27853, 48 h, read-out: MIC PA 48 h
[27] = ATCC24443, 24 h, read-out: MIC CA 24 h
[28] = ATCC24443, 48 h, read-out: MIC CA 48 h
[29] = ATCC6258, 24 h, read-out: MIC CK 24 h
[30] = ATCC6258, 48 h, read-out: MIC CK 48 h
[31] = ATCC22019, 24 h, read-out: MIC CP 24 h
[32] = ATCC22019, 48 h, read-out: MIC CP 48 h
[33] = ATCC750, 24 h, read-out: MIC CT 24 h
[34] = ATCC750, 48 h, read-out: MIC CT 48 h
[35] = ATCC9533, 72 h, read-out: MIC TI 72 h
[36] = ATCC9533, 120 h, read-out: MIC TI 120 h

Row | SMILES | Selectivity AChE/BuChE [1] | IC50 [1] [µM] | IC50 [2] | MIC [3, 15] [µM] | MIC [3, 16] [µM] | MIC ([4]; 24 h, read-out: MIC MRSA 24 h) [µM] | MIC ([4]; 48 h, read-out: MIC MRSA 48 h) [µM] | MIC [5, 17] [µM] | MIC [5, 18] [µM] | MIC [6, 19] [µM] | MIC [6, 20] [µM] | MIC [7, 21] [µM] | MIC [7, 22] [µM] | MIC [8, 23] [µM] | MIC [8, 24] [µM] | MIC [9, 25] [µM] | MIC [9, 26] [µM] | MIC KP 24 h [10] [µM] | MIC KP 48 h [10] [µM] | MIC [11, 27] [µM] | other results
1 | [H]/N=C(\N)NN=Cc1ccco1 [Compound 3a, (E)-2-(Furan-2-ylmethylene)hydrazine-1-carboximidamide] | 0.50 | 41.1 ± 0.54 | 82.3 ± 3.02 µM |  |  |  |  |  |  |  |  |  |  |  |  |  |  |  |  |  | 
2 | CCN1CCN(C(=O)N[C@@H](C(=O)N[C@@H]2C(=O)N3[C@@H]2SC(C)(C)[C@@H]3C(=O)O)c2ccccc2)C(=O)C1=O [PIP, piperacillin sodium salt, reference compound] |  |  |  | 1.85 | 1.85 | 14.8 | 14.8 | > 59.3 | > 59.3 | 1.85 | 1.85 | 7.41 | 7.41 | > 59.3 | > 59.3 | 14.8 | 14.8 | >59.31 | >59.31 |  | 
3 | [H]/N=C(\N)NN=Cc1cc(I)ccc1O [Compound 1i, (E)-2-(2-Hydroxy-5-iodobenzylidene)hydrazine-1-carboximidamide] | 1.27 | 25 ± 0.5 | < 20 µM and 19.8 µM | 125 (≈ 38 µg/mL) | 125 (≈ 38 µg/mL) | 125 (≈ 38 µg/mL) | 125 (≈ 38 µg/mL) | 250 (≈ 76 µg/mL) | 250 (≈ 76 µg/mL) | 500 (≈ 152 µg/mL) | 500 (≈ 152 µg/mL) | 250 (≈ 76 µg/mL) | 250 (≈ 76 µg/mL) | 500 (≈ 152 µg/mL) | 500 (≈ 152 µg/mL) | 500 (≈ 152 µg/mL) | 500 (≈ 152 µg/mL) | 250 (≈ 76 µg/mL) | 250 (≈ 76 µg/mL) | 500 (≈ 152 µg/mL) | MIC [11, 28]: 500 µM (≈ 152 µg/mL); MIC (Candida krusei ATCC 6258; [29]): 250 µM (≈ 76 µg/mL); MIC (Candida krusei ATCC 6258; [30]): 250 µM (≈ 76 µg/mL); MIC [12, 31]: 250 µM (≈ 76 µg/mL); MIC [12, 32]: 250 µM (≈ 76 µg/mL); MIC [13, 33]: 500 µM (≈ 152 µg/mL); MIC [13, 34]: 500 µM (≈ 152 µg/mL); MIC [14, 35]: 62.5 µM (≈ 19 µg/mL); MIC [14, 36]: 125 µM (≈ 38 µg/mL)
4 | [H]/N=C(\N)NN=Cc1cc(Cl)cc(Br)c1O [Compound 1k, (E)-2-(3-Bromo-5-chloro-2-hydroxybenzylidene)hydrazine-1-carboximidamide] | 1.92 | 22.4 ± 0.67 | < 20 µM and 11.7 µM | 250 (≈ 72.9 µg/mL) | 250 (≈ 72.9 µg/mL) | 250 (≈ 72.9 µg/mL) | 250 (≈ 72.9 µg/mL) | 125 (≈ 36.4 µg/mL) | 250 (≈ 72.9 µg/mL) | 500 (≈ 146 µg/mL) | 500 (≈ 146 µg/mL) | 500 (≈ 146 µg/mL) | 500 (≈ 146 µg/mL) | > 500 | > 500 | > 500 | > 500 | 250 (≈ 72.9 µg/mL) | 250 (≈ 72.9 µg/mL) | 250 (≈ 72.9 µg/mL) | MIC [11, 28]: 500 µM (≈ 146 µg/mL); MIC (Candida krusei ATCC 6258; [29]): 500 µM (≈ 146 µg/mL); MIC (Candida krusei ATCC 6258; [30]): 500 µM (≈ 146 µg/mL); MIC [12, 31]: 500 µM (≈ 146 µg/mL); MIC [12, 32]: 500 µM (≈ 146 µg/mL); MIC [13, 33]: 500 µM (≈ 146 µg/mL); MIC [13, 34]: 500 µM (≈ 146 µg/mL); MIC [14, 35]: 125 µM (≈ 36.4 µg/mL); MIC [14, 36]: 250 µM (≈ 72.9 µg/mL)
5 | OC(Cn1cncn1)(Cn1cncn1)c1ccc(F)cc1F [FLU, fluconazole, reference compound] |  |  |  |  |  |  |  |  |  |  |  |  |  |  |  |  |  |  |  |  | IC50 ([11]; ATCC24443, 24 h, read-out: IC50 (50% growth inhibition) CA 24 h): 6.5 µM; IC50 ([11]; ATCC24443, 48 h, read-out: IC50 (50% growth inhibition) CA 48 h): 6.5 µM; IC50 (Candida krusei ATCC 6258; ATCC6258, 24 h, read-out: IC50 (50% growth inhibition) CK 24 h): > 104 µM; IC50 (Candida krusei ATCC 6258; ATCC6258, 48 h, read-out: IC50 (50% growth inhibition) CK 48 h): > 104 µM; IC50 ([12]; ATCC22019, 24 h, read-out: IC50 (50% growth inhibition) CP 24 h): 3.3 µM; IC50 ([12]; ATCC22019, 48 h, read-out: IC50 (50% growth inhibition) CP 48 h): 3.3 µM; IC50 ([13]; ATCC750, 24 h, read-out: IC50 (50% growth inhibition) CT 24 h): 6.5 µM; IC50 ([13]; ATCC750, 48 h, read-out: IC50 (50% growth inhibition) CT 48 h): 6.5 µM; IC50 ([14]; ATCC9533, 72 h, read-out: IC50 (50% growth inhibition) TI 72 h): 52.2 µM; IC50 ([14]; ATCC9533, 120 h, read-out: IC50 (50% growth inhibition) TI 120 h): 52.2 µM
6 | NC(=O)N/N=C/c1ccc([N+](=O)[O-])o1 [Compound 3d, (E)-2-[(5-Nitrofuran-2-yl)methylene]hydrazine-1-carboxamide] | <0.07 | 36.6 ± 0.69 | > 500 µM | 62.5 (≈ 12.4 µg/mL) | 125 (≈ 24.8 µg/mL) | 62.5 (≈ 12.4 µg/mL) | 125 (≈ 24.8 µg/mL) | 31.2 (≈ 6.19 µg/mL) | 62.5 (≈ 12.4 µg/mL) | 500 (≈ 99.1 µg/mL) | 500 (≈ 99.1 µg/mL) | 125 (≈ 24.8 µg/mL) | 250 (≈ 49.5 µg/mL) | > 500 | > 500 | > 500 | > 500 | 62.5 (≈ 12.4 µg/mL) | 125 (≈ 24.8 µg/mL) |  | 
